In ChEMBL document CHEMBL1128915, “2-cyanopyrrolidides as potent, stable inhibitors of dipeptidyl peptidase IV” (Bioorg Med Chem Lett, 1996):

tested on: not listed separately; assay: Half-life in aqueous solution(pH 7.4).; assay type: ADME

Structure (SMILES)	half-life [h]
N#C[C@@H]1CCCN1C(=O)[C@@H](N)C1CCCCC1	> 48
CC[C@H](C)[C@H](N)C(=O)N1CCC[C@H]1C#N	48
CC(C)(C)[C@H](N)C(=O)N1CCC[C@H]1C#N	> 48
N#C[C@@H]1CCCN1C(=O)[C@@H]1CCCN1	7.5
C[C@H](N)C(=O)N1CCC[C@H]1B(O)O	0.5

Second part, the compound after the results:

half-life [h]	Structure (SMILES)
24	N#C[C@@H]1CCCN1C(=O)[C@@H](N)CCCCN
1.5	O=C([C@@H]1CCCN1)N1CCC[C@H]1B(O)O

biological target: Dipeptidyl peptidase 4 (Homo sapiens, UniProt P27487); assay: In vitro test for inhibitory activity against human dipeptidyl peptidase IV.
Sequence (P27487 whole entry): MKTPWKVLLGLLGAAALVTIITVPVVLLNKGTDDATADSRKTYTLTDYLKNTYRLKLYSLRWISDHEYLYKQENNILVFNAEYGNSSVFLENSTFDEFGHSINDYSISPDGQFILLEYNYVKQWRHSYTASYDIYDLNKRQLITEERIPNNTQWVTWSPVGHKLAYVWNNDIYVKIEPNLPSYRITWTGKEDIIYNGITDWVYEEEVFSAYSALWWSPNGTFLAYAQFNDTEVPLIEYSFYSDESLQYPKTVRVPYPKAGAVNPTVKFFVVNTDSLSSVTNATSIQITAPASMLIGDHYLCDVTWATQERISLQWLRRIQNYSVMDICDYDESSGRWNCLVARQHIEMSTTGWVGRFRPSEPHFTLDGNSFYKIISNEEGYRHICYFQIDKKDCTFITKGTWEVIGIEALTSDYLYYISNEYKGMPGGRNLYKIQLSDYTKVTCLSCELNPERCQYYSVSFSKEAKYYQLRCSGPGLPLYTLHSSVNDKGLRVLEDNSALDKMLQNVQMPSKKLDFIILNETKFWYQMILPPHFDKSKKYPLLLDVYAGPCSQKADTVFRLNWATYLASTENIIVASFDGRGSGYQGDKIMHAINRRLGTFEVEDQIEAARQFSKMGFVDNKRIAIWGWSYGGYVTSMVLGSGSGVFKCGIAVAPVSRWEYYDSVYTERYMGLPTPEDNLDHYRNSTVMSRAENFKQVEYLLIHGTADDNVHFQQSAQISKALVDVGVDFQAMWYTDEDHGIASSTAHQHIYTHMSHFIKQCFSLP

Structure (SMILES)	Ki [nM]
O=C([C@H](CO)NCc1ccccc1)N1CCCC1	6000
N[C@H](C(=O)N1CCCC1)c1ccccc1	5300
C[C@H](N)C(=O)N1CCCC1	7000
C[C@@H](O)[C@H](N)C(=O)N1CCCC1	4900
N[C@@H](CC(=O)O)C(=O)N1CCCC1	14500

Other lines, results leading:

Ki [nM]	Structure (SMILES)
210	NC(C(=O)N1CCCC1)C1CCCC1 (configuration not stated)
880	CC(C)(C)[C@H](N)C(=O)N1CCCC1
520	NCCCC[C@H](NC(=O)OCc1ccccc1)C(=O)N1CCCC1
910	NCCC[C@H](NC(=O)OCc1ccccc1)C(=O)N1CCCC1
900	CNC(C(=O)N1CCCC1)[C@H](C)O (some centres not stated)
2700	N[C@@H](CCC(=O)OCc1ccccc1)C(=O)N1CCCC1
1200	CCCC[C@H](N)C(=O)N1CCCC1
2000	N[C@@H](CCC(=O)O)C(=O)N1CCCC1
5.2	N#C[C@@H]1CCCN1C(=O)[C@@H](N)CCCCN
3	O=C([C@@H]1CCCN1)N1CCC[C@H]1B(O)O
